Measurements reported in the supplement of paper PMC6045584.

What was measured:
Experiment in all cases: area under dose-response curve of surviving fraction (unscaled, Aref=0) (surviving fraction x log10(nM)); higher = more resistant
Settings in all cases: exposure time: 5 days; dose range 0.5-1000 nM
[1] = compound: C#Cc1cccc(Nc2ncnc3cc(OCCOC)c(OCCOC)cc23)c1 [ERLOTINIB]
How it was run: (§1)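 Tumour cell lines in 384-well plates were exposed for five days to eight inhibitor concentrations from 0.5 to 1000 nM. Viability was read by CellTiter-Glo luminescence, normalised to DMSO-only wells, in three screens per line. Dose-response survival curves were fitted to surviving fractions by 3-parameter logistic regression in the drc R package. Area under the curve is the unscaled activity area (Aref = 0) over log10 dose.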

[2] = compound: CCN(CC)CCNC(=O)c1c(C)[nH]c(/C=C2\C(=O)Nc3ccc(F)cc32)c1C [SUNITINIB]
How it was run: as §1

[3] = compound: CN(Cc1cnc2nc(N)nc(N)c2n1)c1ccc(C(=O)N[C@@H](CCC(=O)O)C(=O)O)cc1 [METHOTREXATE]
How it was run: as §1

[4] = compound: CO[C@H]1C[C@@H]2CC[C@@H](C)[C@@](O)(O2)C(=O)C(=O)N2CCCC[C@H]2C(=O)O[C@H]([C@H](C)C[C@@H]2CC[C@@H](OCCO)[C@H](OC)C2)CC(=O)[C@H](C)/C=C(\C)[C@@H](O)[C@@H](OC)C(=O)[C@H](C)C[C@H](C)/C=C/C=C/C=C/1C [EVEROLIMUS]
How it was run: as §1

[5] = compound: COc1cc(CCc2cc(NC(=O)c3ccc(N4CC(C)NC(C)C4)cc3)n[nH]2)cc(OC)c1 [AZD4547]
How it was run: as §1

[6] = compound: COc1cc([C@@H]2c3cc4c(cc3[C@@H](O[C@@H]3O[C@@H]5CO[C@@H](C)O[C@H]5[C@H](O)[C@H]3O)[C@H]3COC(=O)[C@H]23)OCO4)cc(OC)c1O [ETOPOSIDE]
How it was run: as §1

[7] = compound: Cc1nc(Nc2n[nH]c3c2CN(C(=O)N[C@H](CN(C)C)c2ccccc2)C3(C)C)c2sccc2n1
How it was run: as §1

[8] = compound: NC1(c2ccc(-c3nc4ccn5c(=O)[nH]nc5c4cc3-c3ccccc3)cc2)CCC1 [MK2206]
How it was run: as §1

[9] = compound: O=C(NOCC1CC1)c1ccc(F)c(F)c1Nc1ccc(I)cc1Cl
How it was run: as §1

Row | Test System | area under dose-response curve [1] | area under dose-response curve [2] | area under dose-response curve [3] | area under dose-response curve [4] | area under dose-response curve [5] | area under dose-response curve [6] | area under dose-response curve [7] | area under dose-response curve [8] | area under dose-response curve [9]
1 | HSSYII SYNOVIAL | 3.37 | 1.93 | 2.96 | 1.79 | 1.51 | 2.41 | 1.02 | 3.02 | 2.61
2 | MDAMB436 BREAST | 3.36 | 2.56 | 2.65 | 2 | 3.36 | 2.79 | 2.55 | 3.01 | 2.96
3 | HCC1806 BREAST |  | 2.29 | 1.55 | 2.74 | 3.6 | 2.5 | 0.463 |  | 
4 | CHLA90 AUTONOMIC GANGLIA | 3.07 | 2.21 | 3.53 | 1.36 | 2.77 | 2.94 | 1.57 | 3.16 | 2.38
5 | OS25HAL BONE | 3.48 | 3.07 | 1.93 | 2.13 | 3.36 | 3.02 | 1.54 | 2.56 | 3.16
6 | U2OS BONE | 3.46 | 2.94 | 2.4 | 2.39 | 2.79 | 2.88 | 1.35 | 3.14 | 3.26
7 | VP229 BREAST | 2.92 | 2.41 | 3.77 | 1.96 |  | 3.78 | 1.92 |  | 
8 | HCC202 BREAST |  | 3.12 |  |  | 3.81 |  | 2.16 |  | 4.68
9 | BT20 BREAST | 3.67 | 2.95 | 3.51 | 1.35 | 3.58 | 2.9 | 2.78 | 3.76 | 3.11
10 | HMT3552 BREAST | 3.18 |  | 2.25 | 1.98 |  |  |  | 3.05 | 
11 | CAL120 BREAST | 3.02 | 2.74 | 1.67 | 1.62 | 2.59 | 2.9 | 1.08 | 3.14 | 2.97
12 | 93VU HEADNECK | 2.99 | 2.8 |  | 2.71 | 3.56 | 3.41 | 1.18 |  | 2.54
13 | NOS1 BONE |  | 1.78 | 3.88 | 1.75 | 2.71 |  | 1.98 | 2.74 | 
14 | ASKA SYNOVIAL | 3.77 | 2.07 | 3.77 | 2.28 |  | 2.38 | 2.66 | 2.71 | 3.28
15 | BT549 BREAST | 3.57 | 3.02 | 1.9 |  | 3.46 | 2.79 | 1 | 2.87 | 
16 | HCC38 BREAST | 4.24 |  |  | 2.92 | 2.93 |  | 1.16 | 4.11 | 3.59
17 | COLO320DM LARGE INTESTINE | 3.34 | 2.59 | 1.92 | 2.62 | 3.59 | 3.54 | 2.68 | 3.11 | 3.26

Row | Test System | area under dose-response curve [1] | area under dose-response curve [2] | area under dose-response curve [3] | area under dose-response curve [4] | area under dose-response curve [5] | area under dose-response curve [6] | area under dose-response curve [7] | area under dose-response curve [8] | area under dose-response curve [9]
18 | SYO1 SYNOVIAL | 3.34 | 1.69 | 1.91 | 1.81 | 2.4 | 2.14 | 0.731 | 2.79 | 2.4
19 | SUM149.B1*.S BREAST | 3.76 | 2.35 |  | 3.22 | 3.88 |  | 1.97 | 3.63 | 2.74
20 | SG27 HEADNECK | 3.58 | 3.67 |  | 3.13 | 2.8 | 3.45 | 1.72 |  | 
21 | VCAP PROSTATE | 3.63 | 3.14 | 3.36 | 3.02 |  |  | 1.29 | 2.65 | 3.17
22 | MDAMB453 BREAST |  | 3.27 | 2.93 | 1.43 | 2.88 | 3.71 | 1.76 | 2.65 | 3.37
23 | MDAMB157 BREAST | 3.29 | 2.52 | 3.15 | 2.25 | 2.38 | 2.68 | 1.55 |  | 2.81
24 | HELA CERVIX | 3.61 | 3.08 | 2.22 | 3.58 | 3.71 | 3.04 | 2.12 | 3.72 | 
25 | LM7 BONE | 3.61 | 2.46 | 3 | 2.56 | 3.11 | 3.06 | 1.39 | 2.88 | 
26 | SCC90 HEADNECK | 2.89 | 3.19 | 2.81 | 2.09 | 3.57 | 3.67 | 1.7 | 3.03 | 2.18
27 | OSHN BONE | 3.68 | 3.18 | 1.28 | 3.41 | 3.57 | 3 | 1.67 | 3.58 | 3.24
28 | HCT15 LARGE INTESTINE | 3.48 | 2.37 | 1.59 | 1.86 | 3.52 | 3.09 | 2.81 | 3.46 | 2.63
29 | MFM223 BREAST | 4.35 | 2.38 | 4 | 2.56 | 1.63 | 3.2 | 1.83 | 2.57 | 3.55
30 | HOS BONE | 3.4 | 3.1 | 1.32 | 2.56 | 3.24 | 2.45 | 1.45 | 3.15 | 3.27
31 | SNU475 LIVER | 3.21 | 2.27 | 3 | 1.26 | 3.14 | 3.16 | 1.98 | 3.02 | 2.41
32 | SG31 HEADNECK |  | 2.47 | 3.94 | 2.18 | 3.1 |  | 2.15 |  | 2.78
33 | SAOS2 BONE |  | 2.75 |  | 3.1 |  | 3.15 | 1.41 | 3.03 | 3.22
34 | SCC36 HEADNECK | 2.92 | 2.53 | 2.83 | 3.13 |  |  | 0.887 | 2.91 | 
